Reference: publication PMC12073635, “Synthesis of Tricyclic and Tetracyclic Lactone Derivatives of Thieno[2,3-b]pyrazine or Thieno[2,3-b]quinoline: Preliminary Antitumor and Antiparasitic Activity Evaluation” (Molecules, 2025)

Tests used:
[1] = system: CaCo-2 (colorectal adenocarcinoma) cells; assay: SRB cell growth inhibition assay, CaCo-2; format: cell-based, human; conditions: Homo sapiens, Caco-2, 72 h, mean ± standard deviation
Procedure: (§1) The antitumor potential of the Sonogashira coupling products 2, tricyclic lactones 3 and 5, and tetracyclic lactones 7 was evaluated using the sulforhodamine B (SRB) assay against five human tumor cell lines: colorectal adenocarcinoma (CaCo-2), breast adenocarcinoma (MCF-7), gastric adenocarcinoma (AGS), cervical carcinoma (HeLa), and non-small cell lung cancer (NCI-H460). A primary pig liver cell culture (PLP2) was used to assess the toxicity of compounds.
(§2) The human tumor cell lines used were CaCo-2 (colorectal adenocarcinoma), MCF-7 (breast adenocarcinoma), AGS (gastric adenocarcinoma), HeLa (cervical carcinoma), NCI-H460 (lung carcinoma). Non-tumor cell lines were also tested: PLP2 (primary pig liver culture). All the cell lines were maintained in RPMI-1640 medium supplemented with 10% fetal bovine serum, glutamine (2 mM), penicillin (100 U/mL), and streptomycin ([…]), with the exception of PLP2, which was maintained in DMEM medium supplemented with fetal bovine serum (10%), glutamine and antibiotics. The culture flasks were incubated at 37 °C and with 5% CO2, under a humid atmosphere. The cells were used only when they had 70 to 80% confluence. A known mass of each compound was dissolved in DMSO/H2O (1:1, 1 mL), in order to obtain the stock solutions with a concentration of 1 mM. […] Each compound concentration (10 μL) was incubated with the cell suspension (190 μL) of the cell lines tested in 96-well microplates for 72 h. The microplates were incubated at 37 °C and with 5% CO2 in a humid atmosphere after checking the adherence of the cells. All cell lines were tested at a concentration of 10,000 cells/well. After the incubation period, the cells were treated: TCA (10% w/v; 100 μL) was previously cooled, and plates were incubated for 1 h at 4 °C, washed with water, and, after drying, a SRB solution (0.057%, m/v; 100 μL) was added and left to stand at room temperature for 30 min. To remove non-adhered SRB, plates were washed three times with a solution of acetic acid (1% v/v) and placed to dry. Finally, an adhered SRB was solubilized with Tris (10 mM, 200 μL) and the absorbance at a wavelength of 540 nm was read in the Biotek ELX800 microplate reader. The results obtained by the SRB assay were expressed regarding the concentration compounds that can inhibit cell growth by 50%—GI50. Doxorubicin was used as a positive control.

[2] = system: MCF-7 (breast adenocarcinoma) cells; assay: SRB cell growth inhibition assay, MCF-7; format: cell-based, human; conditions: Homo sapiens, MCF7, 72 h, mean ± standard deviation
Procedure: as §1, §2

[3] = system: AGS (gastric adenocarcinoma) cells; assay: SRB cell growth inhibition assay, AGS; format: cell-based; conditions: Homo sapiens, 72 h, mean ± standard deviation
Procedure: as §1, §2

[4] = system: HeLa (cervical carcinoma) cells; assay: SRB cell growth inhibition assay, HeLa; format: cell-based; conditions: Homo sapiens, 72 h, mean ± standard deviation
Procedure: as §1, §2

[5] = system: NCI-H460 (non-small cell lung cancer) cells; assay: SRB cell growth inhibition assay, NCI-H460; format: cell-based; conditions: Homo sapiens, 72 h, mean ± standard deviation
Procedure: as §1, §2

[6] = SRB assay, toxicity in non-tumor PLP2 cells; format: cell-based, pig; conditions: PLP2 primary pig liver cells (non-tumor); non-tumor primary pig liver cells, SRB assay, 72 h, mean ± standard deviation
Procedure: as §1, §2

[7] = system: L. infantum MHOM/MA/67/ITMAP-263 promastigotes; assay: Resazurin-based assay against L. infantum promastigotes; format: cell-based, Leishmania infantum; conditions: 72 h; for L. infantum % of Activity ± ST.DEV (Single Dose 20 μM): single dose 20 μM, no activity = less than 20%; for IC50: Leishmania infantum, dose-response
Procedure: (§3) The antiparasitic activity of compounds 2c–g, 3a, 5a and 7 was evaluated at a single concentration of 20 μM, against Trypanosoma brucei (T. brucei) and Leishmania infantum (L. infantum) promastigotes. The results are shown in Table 9 together with the cytotoxicity data (CC50) in THP-1–derived macrophages cells.
L. infantum MHOM/MA/67/ITMAP-263 promastigotes forms were grown at 27 °C, in complete RPMI-1640 medium supplemented with 10% heat-inactivated Fetal Bovine Serum (FBS), 2 mM L-glutamine, 100 UI/mL penicillin/streptomycin, 20 mM HEPES. Parasites maintenance was performed in T25 non-ventilated flasks by subpassage at a concentration of 1 × 10^6/mL every 5 days on T25 non-ventilated flasks.
The compounds’ efficacy against L. infantum promastigotes was evaluated using a resazurin-based assay. Parasites were added to 100 µL of serial dilutions of compounds in supplemented complete medium at a cell density of 5 × 10^5/mL. As a quality control, a dose–response curve to the antileishmanial drug miltefosine was included in all the assays. The final volume of the assay was 200 µL/well. Each condition was carried out in duplicate. Following 72 h of incubation at the specific conditions for L. infantum, 20 µL of a 0.5 mM resazurin solution was added, and the plates were incubated for a further 4 h under the same conditions. The methodology to obtain the results was the same described in Section 3.2.2. for T. brucei.

[8] = MTT cytotoxicity in THP-1-derived macrophages; format: cell-based, human; conditions: human, THP-1-derived macrophages (PMA-differentiated); MTT, 72 h, tested 100 to 12.5 μM; read-out: CC50 Interval in THP-1-Derived Macrophages
Procedure: Human leukemia cell line, THP-1 (ATCC® TIB-202™, Manassas, VA, USA) was cultured in RPMI-1640 medium supplemented with 10% heat-inactivated Fetal Bovine Serum (FBS), 2 mM L-glutamine, 100 UI/mL penicillin/streptomycin, 20 mM HEPES. The cell line was maintained in a humidified incubator at 37 °C and 5% CO2 by subculture every three days in 20 mL of media at a concentration of 1 × 10^5/mL in a T75 flask. All cell culture reagents were purchased from Lonza-Bioscience (Morrisville, NC, USA).
The cytotoxicity effect of compounds on THP-1-derived macrophages was assessed by the colorimetric MTT assay (3-(4,5-dimethylthiazol-2-yl)-2,5-diphenyl tetrazolium bromide). Briefly, THP-1 cells were suspended in RPMI complete medium at a density of 1 × 10^6 cells/mL and 100 μL/well were seeded in a 96-well plate and were differentiated into macrophages by addition of 40 ng/mL of phorbol-myristate 13-acetate (PMA, Sigma, Saint Louis, MI, USA) for 24 h followed by replacement with fresh medium for more 24 h. Subsequently, cells were incubated with 100 μL of compounds ranging from 100 to 12.5 μM after dilution in the RPMI complete medium. Each condition was carried out in quadruplicate. After 72 h of incubation at 37 °C 5% CO2, the medium was removed and 200 μL of 0.5 mg/mL MTT solution diluted in RPMI was added. Plates were incubated for an additional 4 h. Then 160 μL of media was removed and the same volume of 2-propanol was added. Absorbance was read at 570 nm using a Synergy 2 Multi-Mode Reader (Biotek, Winooski, VT, USA). Cytotoxicity was evaluated by the determination of the CC50 value (drug concentration that reduced the percentage of viable cells in 50%) and calculated by non-linear regression analysis using GraphPad Prism version 8.1.1 for Windows (GraphPad Software, San Diego, CA, USA). The results represent the average of at least three independent experiments. For each compound, the Selectivity Index (SI) was calculated as the ratio between cytotoxicity in THP-1 (CC50, 72 h) and activity against parasites (IC50, 72 h).

[9] = system: T. brucei Lister 427 bloodstream forms; assay: Resazurin-based anti-T. brucei assay; format: cell-based, Trypanosoma brucei; conditions: single dose 20 μM, 72 h; no activity = less than 20%
Procedure: as §3
T. brucei Lister 427 bloodstream forms were grown in a humidified incubator at 37 °C, 5% CO2 in complete HMI-9 medium 1 supplemented with 10% heat-inactivated Fetal Bovine Serum (FBS) and 100 UI/mL penicillin/streptomycin. Parasites maintenance was performed in T25 ventilated flasks by subpassage at a concentration of 1 × 10^4/mL every 2 days on T25 ventilated flasks.
The efficacy of compounds against T. brucei bloodstream forms was evaluated using a modified resazurin-based assay previously described in the literature. Parasites were added to 100 µL of serial dilutions of compounds in supplemented complete medium at a cell density of 5 × 10^3/mL for. As a quality control, a dose–response curve for the antitrypanosomal pentamidine was included in all the assays. The final volume of the assay is 200 µL/well. Each condition was carried out in duplicate. Following 72 h incubation at the specific conditions for T. brucei, 20 µL of a 0.5 mM resazurin solution was added and plates were incubated for a further 4 h under the same conditions. Fluorescence was measured at 544 nm and 590 nm excitation and emission wavelength, respectively, using a Synergy 2 Multi-Mode Reader (Biotek, Winooski, VT, USA). Results were shown as % of parasite growth inhibition compared to control (untreated parasites) and represent the average of at least three independent experiments. The effect was evaluated by the determination of the IC50 value (concentration required to inhibit growth in 50%) and calculated by non-linear regression curves using GraphPad Prism version 8.1.1 for Windows (GraphPad Software, San Diego CA, USA).

| Compound | GI50 [1] | GI50 [2] | GI50 [3] | GI50 [4] | GI50 [5] | IC50 [7] | GI50 at 72 h [6] | L. infantum % of Activity ± ST.DEV (Single Dose 20 μM) [7] | CC50 at 72 h [8] | T. brucei % of Activity ± ST.DEV (Single Dose 20 μM) [9] |
| --- | --- | --- | --- | --- | --- | --- | --- | --- | --- | --- |
| N=C(N)c1ccc(OCCCCCOc2ccc(C(=N)N)cc2)cc1 [Pentamidine, pentamidine, reference compound] |  |  |  |  |  | 2.94 µM |  |  |  |  |
| COC(=O)c1sc2nccnc2c1C#Cc1ccc(F)cc1 [Compound 2c, Methyl 7-[(4-fluorophenyl)ethynyl]-thieno[2,3-b]pyrazine-6-carboxylate] | 52.1 ± 0.89 µM | 51.8 ± 1.07 µM | 70.7 ± 4.72 µM | 48.3 ± 1.66 µM | 67.2 ± 3.05 µM |  | > 125 µM | no activity * | > 100 µM | no activity * |
| COC(=O)c1sc2nccnc2c1C#Cc1ccc(OC)cc1 [Compound 2d, Methyl 7-[(4-methoxyphenyl)ethynyl]thieno[2,3-b]pyrazine-6-carboxylate] | 79.5 ± 3.58 µM | 67.9 ± 2.47 µM | 59.3 ± 1.97 µM | 62.3 ± 2.98 µM | 82.5 ± 5.35 µM |  | > 125 µM | no activity * | > 100 µM | no activity * |
| COC(=O)c1sc2nccnc2c1C#Cc1ccc(C)cc1 [Compound 2e, Methyl 7-(p-tolylethynyl)thieno[2,3-b]pyrazine-6-carboxylate] | 93 ± 7.23 µM | 95.8 ± 8.08 µM | 89.2 ± 5.33 µM | 76.9 ± 6.55 µM | 102 ± 8.13 µM |  | > 125 µM | no activity * | > 100 µM |  |
| O=c1oc(-c2ccc(C(F)(F)F)cc2)c(-c2ccc(C(F)(F)F)cc2)c2c1sc1nc3ccccc3cc12 [Compound 7e, 3,4-Bis(4-(trifluoromethyl)phenyl)-1H-pyrano[4’,3’:4,5]thieno[2,3-b]quinolin-1-one] |  |  |  |  |  |  |  | no activity * | 25 to 50 µM | no activity * |

More lines, main results first:

| GI50 [1] | GI50 [2] | GI50 [3] | GI50 [4] | GI50 [5] | IC50 [7] | Compound | GI50 at 72 h [6] | L. infantum % of Activity ± ST.DEV (Single Dose 20 μM) [7] | CC50 at 72 h [8] | T. brucei % of Activity ± ST.DEV (Single Dose 20 μM) [9] |
| --- | --- | --- | --- | --- | --- | --- | --- | --- | --- | --- |
| 75 ± 4.49 µM | 97.9 ± 6.31 µM | 93.5 ± 5.37 µM | 78.9 ± 6.06 µM | 93.9 ± 3.18 µM |  | O=c1oc(-c2ccccc2)c(-c2ccccc2)c2c1sc1nc3ccccc3cc12 [Compound 7a, 3,4-Diphenyl-1H-pyrano[4′,3′:4,5]thieno[2,3-b]quinolin-1-one] | > 125 µM | no activity * | < 12.5 µM |  |
| 91.1 ± 2.46 µM | 101 ± 7.33 µM | 99.8 ± 4.94 µM | 82.8 ± 8.02 µM | 109 ± 9.16 µM | 19 µM | CCCCc1oc(=O)c2sc3nc4ccccc4cc3c2c1CCCC [Compound 7b, 3,4-Dibutyl-1H-pyrano[4′,3′:4,5]thieno[2,3-b]quinolin-1-one] | > 125 µM |  | 12.5 to 50 µM | no activity * |
| 90 ± 3.29 µM | 91.2 ± 8.71 µM | 88.6 ± 5.08 µM | 75.2 ± 6.72 µM | 97.8 ± 6.14 µM |  | COc1ccc(-c2oc(=O)c3sc4nc5ccccc5cc4c3c2-c2ccc(OC)cc2)cc1 [Compound 7d, 3,4-Bis(4-methoxyphenyl)-1H-pyrano[4′,3′:4,5]thieno[2,3-b]quinolin-1-one] | > 125 µM | no activity * | < 12.5 µM | no activity * |
